Experimental findings from BindingDB's records for doi:10.1016/0024-3205(96)00449-3 (Eli Lilly, 1996) are described below.

In one experiment the target is 5-hydroxytryptamine receptor 2A (Homo sapiens, UniProt P28223).
Sequence of 5-hydroxytryptamine receptor 2A (P28223 whole entry): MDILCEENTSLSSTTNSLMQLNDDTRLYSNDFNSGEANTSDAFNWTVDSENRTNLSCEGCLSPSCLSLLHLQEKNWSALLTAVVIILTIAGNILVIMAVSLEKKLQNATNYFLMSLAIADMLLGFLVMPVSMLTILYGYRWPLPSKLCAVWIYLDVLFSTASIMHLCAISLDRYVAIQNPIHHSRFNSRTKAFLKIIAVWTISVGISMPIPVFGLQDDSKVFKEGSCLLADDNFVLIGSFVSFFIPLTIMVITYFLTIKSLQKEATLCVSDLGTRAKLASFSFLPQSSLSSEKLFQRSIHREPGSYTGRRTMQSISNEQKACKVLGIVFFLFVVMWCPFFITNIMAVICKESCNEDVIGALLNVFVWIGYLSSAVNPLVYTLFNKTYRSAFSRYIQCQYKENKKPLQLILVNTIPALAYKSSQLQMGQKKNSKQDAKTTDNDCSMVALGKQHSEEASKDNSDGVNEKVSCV
`CCCc1cc(C(C)(C)C)ccc1Oc1cccc(C=NN=C(N)N)c1` [LY 320951] came in with a Ki of 839 nM. In other words, the sub-micromolar range.

For `Cc1ccc(C)c(COc2ccc(C=NN=C(N)N)cc2)c1` [LY 334359], affinity was put at a Ki of 569 nM.

As to `NC(N)=NN=C(c1ccccc1)C1CCC(Cl)S1` (stereo not drawn) [LY 063518], the Ki is 137 nM.

`CCCc1c(COc2ccc(C=NN=C(N)N)cc2)ccc(C(C)=O)c1O` [LY 314228] displayed a Ki of 65 nM.

Take `CCCc1c(COc2ccc(C=NN=C(N)N)cc2)ccc(C(=O)CC)c1O` [LY 320954]: the Ki worked out at 96 nM. The Ki values of the last two compounds are within 1.5-fold of each other.

Compound `CCCc1c(COc2ccc(C=NN=C(N)N)c(OC)c2)ccc(C(=O)CC)c1O` [LY 320950] displayed a Ki of 248 nM.

The compound `NC(N)=NN=Cc1cccc(OCc2ccc(C(=O)c3ccccc3)cc2)c1` [LY 334362] showed a Ki of 179 nM. This Ki and that of the compound before are within 1.5-fold of each other.

The target of another experiment is 5-hydroxytryptamine receptor 2B (Homo sapiens, UniProt P41595).
Sequence of 5-hydroxytryptamine receptor 2B (P41595 whole entry): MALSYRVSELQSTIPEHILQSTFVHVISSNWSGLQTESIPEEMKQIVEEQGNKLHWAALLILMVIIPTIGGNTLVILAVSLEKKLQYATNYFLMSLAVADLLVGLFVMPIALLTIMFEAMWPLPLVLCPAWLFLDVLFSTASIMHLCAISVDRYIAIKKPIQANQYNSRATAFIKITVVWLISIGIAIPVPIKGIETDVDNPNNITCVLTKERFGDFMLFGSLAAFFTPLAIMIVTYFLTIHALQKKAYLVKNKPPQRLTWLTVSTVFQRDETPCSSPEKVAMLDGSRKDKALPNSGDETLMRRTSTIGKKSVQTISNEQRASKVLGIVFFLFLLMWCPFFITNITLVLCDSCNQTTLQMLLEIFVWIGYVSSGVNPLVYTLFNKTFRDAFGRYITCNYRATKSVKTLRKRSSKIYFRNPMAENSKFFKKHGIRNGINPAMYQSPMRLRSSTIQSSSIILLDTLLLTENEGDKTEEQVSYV
Compound `CCCc1cc(C(C)(C)C)ccc1Oc1cccc(C=NN=C(N)N)c1` [LY 320951] had a Ki of 2930 nM. That is a single-digit micromolar value.

The compound `CCc1c(COc2ccc(C=O)cc2)ccc(C(C)=O)c1O` [LY 335102] returned a Ki of 7910 nM.

The compound `Cc1ccc(C)c(COc2ccc(C=NN=C(N)N)cc2)c1` [LY 334359] returned a Ki of 388 nM.

On to `NC(N)=NN=C(c1ccccc1)C1CCC(Cl)S1` (stereo not drawn) [LY 063518], for which the affinity, expressed as Ki, was 472 nM. This Ki and that of the compound before are within 1.5-fold of each other.

As to `CCCc1c(COc2ccc(C=NN=C(N)N)cc2)ccc(C(C)=O)c1O` [LY 314228], the Ki was determined as 1210 nM.

`CCCc1c(COc2ccc(C=NN=C(N)N)cc2)ccc(C(=O)CC)c1O` [LY 320954] showed a Ki of 1640 nM.

The compound `CCCc1c(COc2ccc(C=NN=C(N)N)c(OC)c2)ccc(C(=O)CC)c1O` [LY 320950] showed a Ki of 465 nM.

Consider `NC(N)=NN=Cc1cccc(OCc2ccc(C(=O)c3ccccc3)cc2)c1` [LY 334362], for which the affinity corresponds to a Ki of 477 nM.

The target in the next experiment is T1, 5-hydroxytryptamine receptor 2C (Homo sapiens, UniProt P28335).
T1 sequence (P28335 whole entry): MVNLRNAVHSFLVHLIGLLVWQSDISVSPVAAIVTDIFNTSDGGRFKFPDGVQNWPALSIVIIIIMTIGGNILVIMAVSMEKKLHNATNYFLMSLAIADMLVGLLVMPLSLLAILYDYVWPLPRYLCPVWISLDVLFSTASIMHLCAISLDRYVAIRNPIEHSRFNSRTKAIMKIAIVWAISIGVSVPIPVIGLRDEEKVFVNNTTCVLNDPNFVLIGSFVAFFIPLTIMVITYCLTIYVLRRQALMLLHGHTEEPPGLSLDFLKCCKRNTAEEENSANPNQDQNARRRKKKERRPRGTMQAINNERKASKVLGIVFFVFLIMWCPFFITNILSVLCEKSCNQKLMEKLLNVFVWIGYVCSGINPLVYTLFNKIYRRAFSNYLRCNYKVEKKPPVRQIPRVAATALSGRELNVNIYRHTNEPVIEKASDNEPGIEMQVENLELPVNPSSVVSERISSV
Compound `CCCc1cc(C(C)(C)C)ccc1Oc1cccc(C=NN=C(N)N)c1` [LY 320951] returned a Ki of 1190 nM.

As to `CCc1c(COc2ccc(C=O)cc2)ccc(C(C)=O)c1O` [LY 335102], the Ki was 9730 nM.

`Cc1ccc(C)c(COc2ccc(C=NN=C(N)N)cc2)c1` [LY 334359] came in with a Ki of 401 nM.

On to `NC(N)=NN=C(c1ccccc1)C1CCC(Cl)S1` (stereo not drawn) [LY 063518], for which the Ki was 1660 nM.

As for `CCCc1c(COc2ccc(C=NN=C(N)N)cc2)ccc(C(C)=O)c1O` [LY 314228], the Ki came out at 168 nM. This Ki lies about 9.9-fold lower than the previous one.

Compound `CCCc1c(COc2ccc(C=NN=C(N)N)cc2)ccc(C(=O)CC)c1O` [LY 320954] yielded a Ki of 257 nM. Compared with the last compound, the Ki is about 1.5-fold higher.

The compound `CCCc1c(COc2ccc(C=NN=C(N)N)c(OC)c2)ccc(C(=O)CC)c1O` [LY 320950] showed a Ki of 188 nM.

As to `NC(N)=NN=Cc1cccc(OCc2ccc(C(=O)c3ccccc3)cc2)c1` [LY 334362], the Ki turned out to be 91 nM.

The term Ki denotes a measure of affinity in units of concentration, obtained from inhibition or displacement. Low readings indicate tighter binding, high ones weaker binding.
